Relative viability data for six cell lines are collected here from the supplement of paper PMC10307832.

Experiment in all cases: relative viability (nuclei count vs DMSO), 5 days (fraction); higher = more cells survive
Compound in test [1]: CC1=CC=C(C=C1)C(=O)CN2C3=C(CCCC3)SC2=N [Pifithrin_alpha] + CCNC(=O)c1noc(-c2cc(C(C)C)c(O)cc2O)c1-c1ccc(CN2CCOCC2)cc1 [Luminespib] (partner 0.01 µM)
In outline:
(§1)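 Cells from lung cancer lines were seeded into 1536-well plates and, one day later, dosed by pin tool. Treatments were either a single drug or a fixed dose of an anchor drug with five library-drug doses (not always all listed) in √10 steps. After 5 days, nuclei were stained in a one-step fixation (final 0.05% Triton X-100, 1% formaldehyde, 1 ug/ml Hoechst) and counted on 4× images, and relative viability is the treated-to-vehicle nuclei ratio, as the median of duplicate plates.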

Compound in the test “Bemcentinib + Bortezomib”: Nc1nc(Nc2ccc3c(c2)CC[C@@H](N2CCCC2)CC3)nn1-c1cc2c(nn1)-c1ccccc1CCC2 [Bemcentinib] + CC(C)C[C@H](NC(=O)[C@H](Cc1ccccc1)NC(=O)c1cnccn1)B(O)O [Bortezomib] (partner 0.002 µM)
In outline: as §1

Compound in the test “Axitinib + Decitabine”: CNC(=O)c1ccccc1Sc1ccc2c(/C=C/c3ccccn3)n[nH]c2c1 [Axitinib] + Nc1ncn([C@H]2C[C@H](O)[C@@H](CO)O2)c(=O)n1 [Decitabine] (partner 2 µM)
In outline: as §1

Compound in the test “Axitinib + Vorinostat”: CNC(=O)c1ccccc1Sc1ccc2c(/C=C/c3ccccn3)n[nH]c2c1 [Axitinib] + O=C(CCCCCCC(=O)Nc1ccccc1)NO [Vorinostat] (partner 1 µM)
In outline: as §1

For the cell line NCI-H2085, the relative viability came out at 0.404 in test [1] (first compound 3.162 µM); 0.513 in test [1] (first compound 10 µM); 0.387 in test [1] (first compound 31.62 µM); 0.387 in test [1] (first compound 100 µM); 1.01 with Bemcentinib + Bortezomib (first compound 0.04 µM); 1.11 in the test with Bemcentinib + Bortezomib (first compound 0.1265 µM). In addition, the relative viability with Bemcentinib + Bortezomib (first compound 0.4 µM) came out at 1.03; in the test with Bemcentinib + Bortezomib (first compound 1.265 µM), 0.997; with Bemcentinib + Bortezomib (first compound 4 µM), 0.973; with Axitinib + Decitabine (first compound 0.005 µM), 0.578; with Axitinib + Decitabine (first compound 0.01581 µM), 0.54; in the test with Axitinib + Decitabine (first compound 0.05 µM), 0.614. For the same cell line, the relative viability with Axitinib + Decitabine (first compound 0.1581 µM) was 0.551; with Axitinib + Decitabine (first compound 0.5 µM), 0.561; in the test with Axitinib + Vorinostat (first compound 0.005 µM), 0.823; with Axitinib + Vorinostat (first compound 0.01581 µM) it was 0.788; with Axitinib + Vorinostat (first compound 0.05 µM), 0.883; with Axitinib + Vorinostat (first compound 0.1581 µM) it was 0.758. For the same cell line, in the test with Axitinib + Vorinostat (first compound 0.5 µM), the relative viability worked out at 0.812.
Consider NCI-H2087, for which the relative viability in test [1] (first compound 1 µM) turned out to be 0.169; in test [1] (first compound 3.162 µM) it was 0.172; in test [1] (first compound 10 µM) it was 0.153; in test [1] (first compound 100 µM), 0.135; with Bemcentinib + Bortezomib (first compound 0.04 µM), 0.736; in the test with Bemcentinib + Bortezomib (first compound 0.1265 µM), 1.09. In addition, the relative viability amounted to 0.994 in the test with Bemcentinib + Bortezomib (first compound 0.4 µM); 0.61 with Bemcentinib + Bortezomib (first compound 1.265 µM); 0.769 with Bemcentinib + Bortezomib (first compound 4 µM); 0.289 with Axitinib + Decitabine (first compound 0.005 µM); 0.254 with Axitinib + Decitabine (first compound 0.01581 µM); 0.22 with Axitinib + Decitabine (first compound 0.05 µM). The relative viability in the test with Axitinib + Decitabine (first compound 0.1581 µM) was 0.186; in the test with Axitinib + Decitabine (first compound 0.5 µM), 0.293; in the test with Axitinib + Vorinostat (first compound 0.005 µM), 0.618; in the test with Axitinib + Vorinostat (first compound 0.01581 µM) it was 0.626; with Axitinib + Vorinostat (first compound 0.05 µM), 0.741; with Axitinib + Vorinostat (first compound 0.1581 µM), 0.699. For the same cell line, the relative viability with Axitinib + Vorinostat (first compound 0.5 µM) is 0.936.
Regarding NCI-H2126, the relative viability in test [1] (first compound 1 µM) amounted to 0.751; in test [1] (first compound 3.162 µM), 0.956; in test [1] (first compound 10 µM) it was 0.783; in test [1] (first compound 31.62 µM) it was 0.709; in test [1] (first compound 100 µM) it was 0.72; with Bemcentinib + Bortezomib (first compound 0.04 µM), 1.11. Further, the relative viability came out at 1.07 with Bemcentinib + Bortezomib (first compound 0.1265 µM); 1.18 with Bemcentinib + Bortezomib (first compound 0.4 µM); 1.16 with Bemcentinib + Bortezomib (first compound 1.265 µM); 1.13 in the test with Bemcentinib + Bortezomib (first compound 4 µM); 0.617 with Axitinib + Decitabine (first compound 0.005 µM); 0.595 in the test with Axitinib + Decitabine (first compound 0.01581 µM). Moreover, the relative viability with Axitinib + Decitabine (first compound 0.05 µM) stood at 0.571; in the test with Axitinib + Decitabine (first compound 0.1581 µM) it was 0.583; in the test with Axitinib + Decitabine (first compound 0.5 µM), 0.562; in the test with Axitinib + Vorinostat (first compound 0.005 µM) it was 0.828; with Axitinib + Vorinostat (first compound 0.01581 µM), 0.819; with Axitinib + Vorinostat (first compound 0.05 µM), 0.801. For the same cell line, the figures for the relative viability with Axitinib + Vorinostat (first compound 0.1581 µM) and with Axitinib + Vorinostat (first compound 0.5 µM) were 0.8 and 0.724, respectively.
Regarding NCI-H2347, the relative viability is 0.921 in test [1] (first compound 1 µM); 0.541 in test [1] (first compound 3.162 µM); 0.392 in test [1] (first compound 10 µM); 0.288 in test [1] (first compound 31.62 µM); 0.254 in test [1] (first compound 100 µM); 0.831 with Bemcentinib + Bortezomib (first compound 0.04 µM). The relative viability with Bemcentinib + Bortezomib (first compound 0.1265 µM) was found to be 1.03; with Bemcentinib + Bortezomib (first compound 0.4 µM), 0.967; with Bemcentinib + Bortezomib (first compound 1.265 µM) it was 0.901; with Bemcentinib + Bortezomib (first compound 4 µM), 1.11; with Axitinib + Decitabine (first compound 0.005 µM) it was 0.699; with Axitinib + Decitabine (first compound 0.01581 µM) it was 0.543. Moreover, the relative viability in the test with Axitinib + Decitabine (first compound 0.05 µM) was found to be 0.585; with Axitinib + Decitabine (first compound 0.1581 µM) it was 0.578; with Axitinib + Decitabine (first compound 0.5 µM) it was 0.686; in the test with Axitinib + Vorinostat (first compound 0.005 µM), 0.638; with Axitinib + Vorinostat (first compound 0.01581 µM) it was 0.55; with Axitinib + Vorinostat (first compound 0.05 µM), 0.513. The relative viability with Axitinib + Vorinostat (first compound 0.1581 µM) came to 0.664; with Axitinib + Vorinostat (first compound 0.5 µM), 0.619.
Take NCI-H2405: the relative viability in test [1] (first compound 1 µM) came out at 0.757; in test [1] (first compound 3.162 µM), 0.571; in test [1] (first compound 10 µM) it was 0.536; in test [1] (first compound 31.62 µM), 0.668; in test [1] (first compound 100 µM) it was 0.515; in the test with Bemcentinib + Bortezomib (first compound 0.04 µM), 1.01. Also, the relative viability in the test with Bemcentinib + Bortezomib (first compound 0.1265 µM) was found to be 0.853; with Bemcentinib + Bortezomib (first compound 0.4 µM), 0.985; in the test with Bemcentinib + Bortezomib (first compound 1.265 µM), 1.07; in the test with Bemcentinib + Bortezomib (first compound 4 µM) it was 0.938; with Axitinib + Decitabine (first compound 0.005 µM), 0.767; in the test with Axitinib + Decitabine (first compound 0.01581 µM), 0.718. Further, the relative viability in the test with Axitinib + Decitabine (first compound 0.05 µM) is 0.777; with Axitinib + Decitabine (first compound 0.1581 µM), 0.707; with Axitinib + Decitabine (first compound 0.5 µM), 0.811; in the test with Axitinib + Vorinostat (first compound 0.005 µM), 1.01; in the test with Axitinib + Vorinostat (first compound 0.01581 µM), 1.03; with Axitinib + Vorinostat (first compound 0.05 µM), 1.18. In addition, the values for the relative viability with Axitinib + Vorinostat (first compound 0.1581 µM) and in the test with Axitinib + Vorinostat (first compound 0.5 µM) were 0.953 and 1.13, respectively.
Regarding NCI-H3122, the relative viability turned out to be 0.0988 in test [1] (first compound 1 µM); 0.106 in test [1] (first compound 3.162 µM); 0.0966 in test [1] (first compound 10 µM); 0.065 in test [1] (first compound 100 µM); 0.911 with Bemcentinib + Bortezomib (first compound 0.04 µM); 1.04 in the test with Bemcentinib + Bortezomib (first compound 0.1265 µM). In addition, the relative viability was determined as 0.991 with Bemcentinib + Bortezomib (first compound 0.4 µM); 0.937 with Bemcentinib + Bortezomib (first compound 1.265 µM); 0.994 with Bemcentinib + Bortezomib (first compound 4 µM); 0.42 in the test with Axitinib + Decitabine (first compound 0.005 µM); 0.445 in the test with Axitinib + Decitabine (first compound 0.01581 µM); 0.448 with Axitinib + Decitabine (first compound 0.05 µM). Also, the relative viability turned out to be 0.451 in the test with Axitinib + Decitabine (first compound 0.1581 µM); 0.51 with Axitinib + Decitabine (first compound 0.5 µM); 0.914 with Axitinib + Vorinostat (first compound 0.005 µM); 1.06 with Axitinib + Vorinostat (first compound 0.01581 µM); 1.05 with Axitinib + Vorinostat (first compound 0.05 µM); 0.888 with Axitinib + Vorinostat (first compound 0.1581 µM). Further, in the test with Axitinib + Vorinostat (first compound 0.5 µM), the relative viability stood at 1.02.
